Laboratory results published in US20160367623A1, “AGONISTS OF GUANYLATE CYCLASE USEFUL FOR THE TREATMENT OF GASTROINTESTINAL DISORDERS, INFLAMMATION, CANCER AND OTHER DISORDERS” (priority 2015, published 2016).
Bridge positions count the residues as written; N and C are the ends. Ends that are not written are not given here.

Test system: patients with chronic idiopathic constipation (CIC)
Test: Second phase 3 CIC trial: change from baseline in CSBMs/week
Type: in vivo, human
Conditions: All Randomized (includes Duplicate Patients)
[1] = 3 mg, overall average estimate across the 12-week treatment period

Asn^1-Asp^2-Glu^3-Cys^4-Glu^5-Leu^6-Cys^7-Val^8-Asn^9-Val^10-Ala^11-Cys^12-Thr^13-Gly^14-Cys^15-Leu^16 (NDECELCVNVACTGCL; disulfide 4-12, 7-15) [Plecanatide, uroguanylin analogue, guanylate cyclase-C agonist; (C4:C12, C7:C15) bicycle peptide]
Change from Baseline in CSBMs, Difference from Placebo (3 mg, Post-Treatment Week 13): 0.43 CSBMs/week | Change from Baseline in CSBMs, LS Mean (SE) (3 mg, Post-Treatment Week 13): 1.91 (0.131) CSBMs/week | Change from Baseline in CSBMs, Mean (SD) (3 mg, Post-Treatment Week 13): 1.87 (2.717) CSBMs/week | Change from Baseline in CSBMs, Difference from Placebo (3 mg, Post-Treatment Week 14): 0.40 CSBMs/week | Change from Baseline in CSBMs, LS Mean (SE) (3 mg, Post-Treatment Week 14): 1.78 (0.133) CSBMs/week | Change from Baseline in CSBMs, Mean (SD) (3 mg, Post-Treatment Week 14): 1.75 (2.596) CSBMs/week | Change from Baseline in CSBMs, Difference from Placebo (3 mg, Week 1): 0.90 CSBMs/week | Change from Baseline in CSBMs, LS Mean (SE) (3 mg, Week 1): 1.72 (0.147) CSBMs/week | Change from Baseline in CSBMs, Mean (SD) (3 mg, Week 1): 1.75 (2.737) CSBMs/week | Change from Baseline in CSBMs, Difference from Placebo (3 mg, Week 2): 0.87 CSBMs/week | Change from Baseline in CSBMs, LS Mean (SE) (3 mg, Week 2): 1.83 (0.147) CSBMs/week | Change from Baseline in CSBMs, Mean (SD) (3 mg, Week 2): 1.82 (2.956) CSBMs/week | Change from Baseline in CSBMs, Difference from Placebo (3 mg, Week 3): 0.77 CSBMs/week | Change from Baseline in CSBMs, LS Mean (SE) (3 mg, Week 3): 1.94 (0.147) CSBMs/week | Change from Baseline in CSBMs, Mean (SD) (3 mg, Week 3): 1.94 (3.084) CSBMs/week | Change from Baseline in CSBMs, Difference from Placebo (3 mg, Week 4): 0.95 CSBMs/week | Change from Baseline in CSBMs, LS Mean (SE) (3 mg, Week 4): 2.17 (0.148) CSBMs/week | Change from Baseline in CSBMs, Mean (SD) (3 mg, Week 4): 2.20 (3.352) CSBMs/week | Change from Baseline in CSBMs, Difference from Placebo (3 mg, Week 5): 0.87 CSBMs/week | Change from Baseline in CSBMs, LS Mean (SE) (3 mg, Week 5): 2.30 (0.149) CSBMs/week | Change from Baseline in CSBMs, Difference from Placebo (3 mg, Week 6): 1.00 CSBMs/week | Change from Baseline in CSBMs, LS Mean (SE) (3 mg, Week 6): 2.30 (0.149) CSBMs/week | Change from Baseline in CSBMs, Difference from Placebo (3 mg, Week 7): 0.82 CSBMs/week | Change from Baseline in CSBMs, LS Mean (SE) (3 mg, Week 7): 2.28 (0.150) CSBMs/week | Change from Baseline in CSBMs, Difference from Placebo (3 mg, Week 8): 1.01 CSBMs/week | Change from Baseline in CSBMs, LS Mean (SE) (3 mg, Week 8): 2.49 (0.150) CSBMs/week | Change from Baseline in CSBMs, Difference from Placebo (3 mg, Week 9): 0.93 CSBMs/week | Change from Baseline in CSBMs, LS Mean (SE) (3 mg, Week 9): 2.46 (0.150) CSBMs/week | Change from Baseline in CSBMs, Difference from Placebo (3 mg, Week 10): 0.84 CSBMs/week | Change from Baseline in CSBMs, LS Mean (SE) (3 mg, Week 10): 2.46 (0.150) CSBMs/week | Change from Baseline in CSBMs, Difference from Placebo (3 mg, Week 11): 0.96 CSBMs/week | Change from Baseline in CSBMs, LS Mean (SE) (3 mg, Week 11): 2.53 (0.151) CSBMs/week | Change from Baseline in CSBMs, Difference from Placebo (3 mg, Week 12): 0.95 CSBMs/week | Change from Baseline in CSBMs, LS Mean (SE) (3 mg, Week 12): 2.58 (0.151) CSBMs/week | Change from Baseline in CSBMs, Difference from Placebo [1]: 0.91 CSBMs/week | Change from Baseline in CSBMs, LS Mean (SE) [1]: 2.25 (0.129) CSBMs/week | Change from Baseline in CSBMs, Difference from Placebo (6 mg, Post-Treatment Week 13): 0.16 CSBMs/week | Change from Baseline in CSBMs, LS Mean (SE) (6 mg, Post-Treatment Week 13): 1.64 (0.130) CSBMs/week | Change from Baseline in CSBMs, Mean (SD) (6 mg, Post-Treatment Week 13): 1.59 (2.376) CSBMs/week | Change from Baseline in CSBMs, Difference from Placebo (6 mg, Post-Treatment Week 14): 0.30 CSBMs/week | Change from Baseline in CSBMs, LS Mean (SE) (6 mg, Post-Treatment Week 14): 1.67 (0.133) CSBMs/week | Change from Baseline in CSBMs, Mean (SD) (6 mg, Post-Treatment Week 14): 1.62 (2.588) CSBMs/week | Change from Baseline in CSBMs, Difference from Placebo (6 mg, Week 1): 0.88 CSBMs/week | Change from Baseline in CSBMs, LS Mean (SE) (6 mg, Week 1): 1.70 (0.146) CSBMs/week | Change from Baseline in CSBMs, Mean (SD) (6 mg, Week 1): 1.71 (2.870) CSBMs/week | Change from Baseline in CSBMs, Difference from Placebo (6 mg, Week 2): 0.85 CSBMs/week | Change from Baseline in CSBMs, LS Mean (SE) (6 mg, Week 2): 1.81 (0.146) CSBMs/week | Change from Baseline in CSBMs, Mean (SD) (6 mg, Week 2): 1.83 (3.118) CSBMs/week | Change from Baseline in CSBMs, Difference from Placebo (6 mg, Week 3): 0.65 CSBMs/week | Change from Baseline in CSBMs, LS Mean (SE) (6 mg, Week 3): 1.81 (0.147) CSBMs/week | Change from Baseline in CSBMs, Mean (SD) (6 mg, Week 3): 1.83 (2.927) CSBMs/week | Change from Baseline in CSBMs, Difference from Placebo (6 mg, Week 4): 0.80 CSBMs/week | Change from Baseline in CSBMs, LS Mean (SE) (6 mg, Week 4): 2.02 (0.147) CSBMs/week | Change from Baseline in CSBMs, Difference from Placebo (6 mg, Week 5): 0.50 CSBMs/week | Change from Baseline in CSBMs, LS Mean (SE) (6 mg, Week 5): 1.93 (0.147) CSBMs/week | Change from Baseline in CSBMs, Difference from Placebo (6 mg, Week 6): 0.91 CSBMs/week | Change from Baseline in CSBMs, LS Mean (SE) (6 mg, Week 6): 2.21 (0.148) CSBMs/week | Change from Baseline in CSBMs, Difference from Placebo (6 mg, Week 7): 0.81 CSBMs/week | Change from Baseline in CSBMs, LS Mean (SE) (6 mg, Week 7): 2.27 (0.148) CSBMs/week | Change from Baseline in CSBMs, Difference from Placebo (6 mg, Week 8): 0.81 CSBMs/week | Change from Baseline in CSBMs, LS Mean (SE) (6 mg, Week 8): 2.29 (0.148) CSBMs/week | Change from Baseline in CSBMs, Difference from Placebo (6 mg, Week 9): 0.81 CSBMs/week | Change from Baseline in CSBMs, LS Mean (SE) (6 mg, Week 9): 2.34 (0.149) CSBMs/week | Change from Baseline in CSBMs, Difference from Placebo (6 mg, Week 10): 0.85 CSBMs/week | Change from Baseline in CSBMs, LS Mean (SE) (6 mg, Week 10): 2.47 (0.149) CSBMs/week | Change from Baseline in CSBMs, Difference from Placebo (6 mg, Week 11): 0.83 CSBMs/week | Change from Baseline in CSBMs, LS Mean (SE) (6 mg, Week 11): 2.40 (0.149) CSBMs/week | Change from Baseline in CSBMs, Difference from Placebo (6 mg, Week 12): 0.86 CSBMs/week | Change from Baseline in CSBMs, LS Mean (SE) (6 mg, Week 12): 2.49 (0.150) CSBMs/week | Change from Baseline in CSBMs, Difference from Placebo (6 mg, overall average estimate across the 12-week treatment period): 0.80 CSBMs/week
